# Measured values: ChEMBL document CHEMBL4138146, “A Schmidt rearrangement-mediated synthesis of novel tetrahydro-benzo[1,4]diazepin-5-ones as potential anticancer and antiprotozoal agents” (Eur J Med Chem, 2017)
# Columns and labels:
# Format in all cases: functional
# [1] = tested on: Malme-3M; assay: Growth inhibition of human MALME-3M cells assessed as cell growth at 10^-6 M incubated for 48 hrs by sulforhodamine B assay relative to control; conditions: read-out: Activity
# [2] = tested on: SK-MEL-28; assay: Growth inhibition of human SK-MEL-28 cells assessed as cell growth at 10^-6 M incubated for 48 hrs by sulforhodamine B assay relative to control; conditions: SK-MEL-28, 48 h, read-out: Activity
# [3] = tested on: COLO 205; assay: Growth inhibition of human COLO205 cells assessed as cell growth at 10^-7 M incubated for 48 hrs by sulforhodamine B assay relative to control; conditions: COLO 205, 48 h, read-out: Activity
# [4] = tested on: SR; assay: Growth inhibition of human SR cells assessed as cell growth at 10^-6 M incubated for 48 hrs by sulforhodamine B assay relative to control; conditions: read-out: Activity
# [5] = tested on: MDA-MB-435; assay: Growth inhibition of human MDA-MB-435 cells assessed as cell growth at 10^-8 M incubated for 48 hrs by sulforhodamine B assay relative to control; conditions: MDA-MB-435, 48 h, read-out: Activity
# [6] = tested on: UACC-257; assay: Growth inhibition of human UACC257 cells assessed as cell growth at 10^-7 M incubated for 48 hrs by sulforhodamine B assay relative to control; conditions: UACC-257, 48 h, read-out: Activity
# [7] = tested on: CCRF-CEM; assay: Growth inhibition of human CCRF-CEM cells assessed as cell growth at 10^-6 M incubated for 48 hrs by sulforhodamine B assay relative to control; conditions: read-out: Activity
# [8] = tested on: CAKI-1; assay: Growth inhibition of human Caki1 cells assessed as cell growth at 10^-4 M incubated for 48 hrs by sulforhodamine B assay relative to control; conditions: CAKI-1, 48 h, read-out: Activity
# [9] = tested on: CCRF-CEM; assay: Growth inhibition of human CCRF-CEM cells assessed as cell growth at 10^-7 M incubated for 48 hrs by sulforhodamine B assay relative to control; conditions: read-out: Activity
# [10] = tested on: NCI-H23; assay: Growth inhibition of human NCI-H23 cells assessed as cell growth at 10^-5 M incubated for 48 hrs by sulforhodamine B assay relative to control; conditions: NCI-H23, 48 h, read-out: Activity
# [11] = tested on: HT-29; assay: Growth inhibition of human HT-29 cells assessed as cell growth at 10^-8 M incubated for 48 hrs by sulforhodamine B assay relative to control; conditions: HT-29, 48 h, read-out: Activity
# [12] = tested on: Malme-3M; assay: Growth inhibition of human MALME-3M cells assessed as cell growth at 10^-5 M incubated for 48 hrs by sulforhodamine B assay relative to control; conditions: read-out: Activity
# [13] = tested on: NCI-H322M; assay: Growth inhibition of human NCI-H322M cells assessed as cell growth at 10^-4 M incubated for 48 hrs by sulforhodamine B assay relative to control; conditions: read-out: Activity
# [14] = tested on: SNB-19; assay: Growth inhibition of human SNB19 cells assessed as cell growth at 10^-4 M incubated for 48 hrs by sulforhodamine B assay relative to control; conditions: SNB-19, 48 h, read-out: Activity
# [15] = tested on: OVCAR-4; assay: Growth inhibition of human OVCAR4 cells assessed as cell growth at 10^-6 M incubated for 48 hrs by sulforhodamine B assay relative to control; conditions: OVCAR-4, 48 h, read-out: Activity
# [16] = tested on: NCI-H460; assay: Growth inhibition of human NCI-H460 cells assessed as cell growth at 10^-7 M incubated for 48 hrs by sulforhodamine B assay relative to control; conditions: NCI-H460, 48 h, read-out: Activity
# [17] = tested on: MDA-MB-468; assay: Growth inhibition of human MDA-MB-468 cells assessed as cell growth at 10^-8 M incubated for 48 hrs by sulforhodamine B assay relative to control; conditions: MDA-MB-468, 48 h, read-out: Activity
# [18] = tested on: IGROV-1; assay: Growth inhibition of human IGROV1 cells assessed as cell growth at 10^-8 M incubated for 48 hrs by sulforhodamine B assay relative to control; conditions: IGROV-1, 48 h, read-out: Activity
# [19] = tested on: NCI-H460; assay: Growth inhibition of human NCI-H460 cells assessed as cell growth at 10^-4 M incubated for 48 hrs by sulforhodamine B assay relative to control; conditions: NCI-H460, 48 h, read-out: Activity
# [20] = tested on: NCI-H226; assay: Growth inhibition of human NCI-H226 cells assessed as cell growth at 10^-4 M incubated for 48 hrs by sulforhodamine B assay relative to control; conditions: NCI-H226, 48 h, read-out: Activity
# [21] = tested on: SNB-75; assay: Growth inhibition of human SNB75 cells assessed as cell growth at 10^-6 M incubated for 48 hrs by sulforhodamine B assay relative to control; conditions: SNB-75, 48 h, read-out: Activity
# [22] = tested on: OVCAR-3; assay: Growth inhibition of human OVCAR3 cells assessed as cell growth at 10^-6 M incubated for 48 hrs by sulforhodamine B assay relative to control; conditions: OVCAR-3, 48 h, read-out: Activity
# [23] = tested on: COLO 205; assay: Growth inhibition of human COLO205 cells assessed as cell growth at 10^-5 M incubated for 48 hrs by sulforhodamine B assay relative to control; conditions: COLO 205, 48 h, read-out: Activity
# [24] = tested on: HOP-62; assay: Growth inhibition of human HOP62 cells assessed as cell growth at 10^-5 M incubated for 48 hrs by sulforhodamine B assay relative to control; conditions: HOP-62, 48 h, read-out: Activity
# [25] = tested on: 786-0; assay: Growth inhibition of human 786-0 cells assessed as cell growth at 10^-4 M incubated for 48 hrs by sulforhodamine B assay relative to control; conditions: 786-0, 48 h, read-out: Activity
# [26] = tested on: U-251; assay: Growth inhibition of human U251 cells assessed as cell growth at 10^-7 M incubated for 48 hrs by sulforhodamine B assay relative to control; conditions: U-251, 48 h, read-out: Activity
# [27] = tested on: UACC-257; assay: Growth inhibition of human UACC257 cells assessed as cell growth at 10^-5 M incubated for 48 hrs by sulforhodamine B assay relative to control; conditions: UACC-257, 48 h, read-out: Activity
# [28] = tested on: SN12C; assay: Growth inhibition of human SN12C cells assessed as cell growth at 10^-8 M incubated for 48 hrs by sulforhodamine B assay relative to control; conditions: read-out: Activity
# [29] = tested on: RPMI-8226; assay: Growth inhibition of human RPMI8226 cells assessed as cell growth at 10^-8 M incubated for 48 hrs by sulforhodamine B assay relative to control; conditions: RPMI-8226, 48 h, read-out: Activity
# [30] = tested on: MCF7; assay: Growth inhibition of human MCF7 cells assessed as cell growth at 10^-6 M incubated for 48 hrs by sulforhodamine B assay relative to control; conditions: MCF7, 48 h, read-out: Activity
# [31] = tested on: IGROV-1; assay: Growth inhibition of human IGROV1 cells assessed as cell growth at 10^-4 M incubated for 48 hrs by sulforhodamine B assay relative to control; conditions: IGROV-1, 48 h, read-out: Activity
# [32] = tested on: HOP-92; assay: Growth inhibition of human HOP92 cells assessed as cell growth at 10^-4 M incubated for 48 hrs by sulforhodamine B assay relative to control; conditions: HOP-92, 48 h, read-out: Activity
# [33] = tested on: HOP-92; assay: Growth inhibition of human HOP92 cells assessed as cell growth at 10^-6 M incubated for 48 hrs by sulforhodamine B assay relative to control; conditions: HOP-92, 48 h, read-out: Activity
# [34] = tested on: T47D; assay: Growth inhibition of human T47D cells assessed as cell growth at 10^-4 M incubated for 48 hrs by sulforhodamine B assay relative to control; conditions: read-out: Activity
compound,measurement,setting,value
CCCCOc1nc2ccccc2cc1C1CNC(=O)c2ccccc2N1 (centres undefined),growth at 1 µM,[1],62%
same,growth at 1 µM,[2],71%
same,growth at 0.1 µM,[3],95%
same,growth at 1 µM,[4],55%
same,growth at 0.01 µM,[5],95%
same,growth at 0.1 µM,[6],92%
same,growth at 1 µM,[7],85%
same,growth at 100 µM,[8],-22%
same,growth at 0.1 µM,[9],100%
same,growth at 10 µM,[10],33%
same,growth at 0.01 µM,[11],94%
same,growth at 10 µM,[12],41%
same,growth at 100 µM,[13],-16%
same,growth at 100 µM,[14],-5%
same,growth at 1 µM,[15],85%
same,growth at 0.1 µM,[16],102%
same,growth at 0.01 µM,[17],78%
same,growth at 0.01 µM,[18],97%
same,growth at 100 µM,[19],-73%
same,growth at 100 µM,[20],-32%
same,growth at 1 µM,[21],63%
same,growth at 1 µM,[22],64%
same,growth at 10 µM,[23],-43%
same,growth at 10 µM,[24],19%
same,growth at 100 µM,[25],-76%
same,growth at 0.1 µM,[26],96%
same,growth at 10 µM,[27],48%
same,growth at 0.01 µM,[28],97%
same,growth at 0.01 µM,[29],95%
same,growth at 1 µM,[30],62%
same,growth at 100 µM,[31],-51%
same,growth at 100 µM,[32],-38%
same,growth at 1 µM,[33],62%
same,growth at 100 µM,[34],10%
